# In patent US20260069580A1, “PEROXIREDOXIN 3 INHIBITORS AND METHODS OF USE FOR TREATING CANCER” (WAKE FOREST UNIVERSITY HEALTH SCIENCES, priority 2022, published 2026):
# Like-named read-outs stand apart in the source and are kept apart here.
# How the values were obtained:
# [1] = test system: Enterococcus hirae (ATCC #10541); experiment: Antimicrobial Activity Assay; assay type: cell-based; conditions: for MIC: Enterococcus hirae
# Procedure: The overnight growth was then diluted into growth media to make a single solution of E. hirae with a final optical density at 600 nm=0.02 AU. A 20 mM stock solution of Thiostrepton in DMSO was made and used to make multiple dilutions of TS in DMSO. Each TS dilution (0.1 mL) was then added to a test tube containing 10 mL of the diluted E. hirae and grown at 37° C. overnight while shaking at 180 rpm. The next morning, each tube was visually inspected to determine if the cells grew. Final concentrations tested were 0.120, 0.090, 0.075, 0.060, 0.045, 0.030, and 0.015 μM TS. […] Three replicates were made on three separate days (n=9). […] For TS analogs, the dilute E. hirae was treated with 20 µM final concentration of each analog (three replicates each). […] DMSO was used as a positive control (complete cell growth) and 20 µM thiostrepton was used as a negative control.
# [2] = Solubility Assay; assay type: physicochemical; design: key: +++: >1 mM; ++: 0.1-1 mM; +: <0.1 mM; −: polymerized; n.d.: not detectable/not measurable; conditions: 20 mM HEPES, 100 mM NaCl, pH 7.5, 18-24 hours at ambient temperature, HPLC
# Procedure: A 20 mM stock solution was made for each compound in DMSO. To measure solubility, 0.03-0.05 mL of the stock was added to 0.27 mL 20 mM HEPES, 100 mM NaCl, pH 7.5. The solution was mixed and rotated 18-24 hours at ambient temperature. The next day, solutions were centrifuged for 10 min at 20,000×g at 24° C. to remove insoluble, solid material. Next, 100 μL of the supernatant containing the soluble compound was added to 900 μL DMSO and High Performance Liquid Chromatography was performed as described in Table 1 and either HPLC gradient 1 (Table 2) for HPLC gradient 2 (Table 3). For each analog, a 200 μM standard and a 20 μM standard were prepared and run in parallel (standards were dissolved completely in 100% DMSO). The amount of compound in the experimental sample was calculated by comparing the area under the curve for compound peak to the area for the closest standard and correcting for dilution.
# [3] = target: T1, purified human PRX3 (Homo sapiens, UniProt P30048); experiment: Biochemical PRX3 Inhibition Assay (crosslink by SDS PAGE + mono-adduct by MALDI-TOF MS); conditions: incubated 1-2 hr at 37° C., hydrogen peroxide added
# T1 construct: made in house
# T1 sequence (P30048 62-256): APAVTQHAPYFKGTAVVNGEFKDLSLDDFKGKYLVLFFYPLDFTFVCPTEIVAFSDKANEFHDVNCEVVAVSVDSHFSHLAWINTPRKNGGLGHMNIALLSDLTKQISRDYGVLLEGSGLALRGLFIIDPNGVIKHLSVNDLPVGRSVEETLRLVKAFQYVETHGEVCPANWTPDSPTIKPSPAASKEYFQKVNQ
# Procedure: This assay tests the ability of each compound to form a covalent adduct with PRX3. The assay is performed as described in Nelson et al. (2021) Antioxidants (Basel) 10, 150; and Cunniff et al. (2015) PloS one 10, eO127310, and follows the appearance of non-reducible PRX3 crosslinks by SDS PAGE gel electrophoresis and follows the appearance of single PRX3 adducts by mass spectrometry. For this assay, purified human PRX3, hydrogen peroxide (the PRX3 substrate) and all the components required to enable PRX3 to catalytically cycle (thioredoxin-thioredoxin reductase-NAPDH system) are included (details below).
# The biochemical PRX3 Inhibition assay contains 100 µM PRX3, 50 µM human TRX2, 0.5 μM mouse thioredoxin reductase, and a NADPH regenerating system composed of 3.2 mM glucose 6-phosphate, 3.2 U/ml glucose 6-phosphate dehydrogenase and 0.4 mM NADPH. Samples are incubated for 1-2 hr at 37° C. with either 0.2 mM TS (positive control), compounds or an equivalent volume of DMSO (negative control). During this incubation, hydrogen peroxide is added to induce turnover of PRX3. Reactions are stopped by the addition of a buffer containing 100 mM dithiolthreitol (to break disulfide bonds) and SDS (detergent to denature proteins). NADPH, Glucose 6-Phosphate, and glucose 6-phosphate dehydrogenase were purchased from Sigma Aldrich. PRX3, thioredoxin, and thioredoxin reductase were all purified to >98% purity in the Lowther laboratory according to protocols referenced in Nelson et al. (2021) Antioxidants (Basel) 10, 150; and Cunniff et al. (2015) PloS one 10, e0127310.
# To measure the amount of PRX3 crosslink, proteins in the reaction were separated by SDS-polyacrlyamide gel electrophoresis and stained for total protein using GelCode Blue (Life Technologies). The amount of unmodified PRX3 and TS-PRX3 crosslink was measured by densiometric analysis of the signal for the PRX3 band running at the MW of a PRX3 crosslink (˜46 kDa) compared to the PRX3 signal at the MW of the un-modified PRX3 (˜23 kD).
# To measure covalent adduct formation on a single PRX3 monomer, each reaction was exchanged into a mass spectrometry compatible buffer containing 40 mM ammonium citrate, pH 8.3 made in HPLC water. Sample was mixed 1:1 with a matrix solution containing 30 mg/mL sinapinic acid in 70% (vol/vol) acetonitrile, 0.2% formic acid and spotted to onto the sample plate. PRX3 mass was measured by MALDI-TOF MS analysis on a Bruker Daltonics MALDI-TOF MS spectrometer. Spectra were analyzed in FLEXAnalysis Software. The intensity of the reduced PRX3 peak (SH) and intensity of the analog adduct peak was determined and corrected for background signal at the adduct peak in the DMSO control. The fraction of single analog adduct in the monomer peak was determined by dividing the intensity of the adduct peak by the summed intensity of the SH and adduct peaks.
# [4] = test system: human SK—OV-3 ovarian cancer cells; experiment: Cellular Activity Assay (cytotoxicity, crystal violet); assay type: cell-based
# From the text: To test the activity of compounds, two complimentary assays were used as described below. The Biochemical PRX3 Inhibition Assay tests the ability of each compound to crosslink PRX3 in a simple, in vitro system. In the Cellular Activity Assay, we are testing the ability of compounds to kill SK—OV-3 ovarian cancer cells.
# The Cellular Activity Assay measures the EC50 of each compound in human SK—OV-3 ovarian cancer cells TS to be taken into the cell, transported to the mitochondria, and crosslink PRX3.
# The cytotoxicity of compounds was measured as described in Nelson et al. (2021) Antioxidants (Basel) 10, 150; Cunniff et al. (2015) PloS one 10, e0127310; and Newick et al. (2012) PloS one 7, e39404. SK—OV-3 is an adherent, epithelial, adenocarcenoma cell line obtained from ATCC (ref #: HTB-77). SK—OV-3 cells are resistant to the commonly used chemotherapeutics, cis-platinum and doxorubicin. For this […], SK—OV-3 cells were plated in a 96-well plate. After 24 h recovery, the cells were treated for 48 hr with multiple concentrations of each compound ranging from 0.1-100 μM.
# Cells were washed with PBS to remove dead cells and the remaining live cells were fixed with 3.0% formaldehyde and stained with 0.1% crystal violet. The amount of crystal violet was determined by reading the absorbance at 540 nm (crystal violet dye dissolved in 100% methanol) using a plate reader. The signal for crystal violet dye is proportional to the biomass of remaining live cells. GraphPad Prism9 software was used to calculate the effective inhibitory concentration (EC50) of test compounds. Results for each compound, are normalized to the amount of cells in control wells treated with the equivalent concentration of DMSO (negative control). TS or Compound A (Reference Compound) were included in each set of assays as a positive control.
# [5] = test system: 578 cancer cells lines; conditions: of 578 cancer cells lines tested; cited from earlier work
# [6] = ATCC10541, E. hirae, overnight growth at 37° C., read-out: Antimicrobial Activity
# [7] = HEPES/NaCl buffer, aqueous with cosolvent or surfactant or cyclodextrin, kinetic from dmso stock, read-out: Solubility
# [8] = SK—OV-3 cells, treated 48 hr, 0.1-100 μM, crystal violet, read-out: EC50
# [9] = ATCC10541, read-out: Antimicrobial Activity
SMILES,"MIC [1, 6]","solubility [2, 7]",PRX3 Inhibition (Crosslink + Mono-adduct) [3],"EC50 [4, 8]",further results
"C=C(NC(=O)c1ccn(C2CCN(C(=O)OC(C)(C)C)CC2)n1)C(=O)NC(=C)C(=O)OC [Compound 6, Tert-butyl 4-(3-((3-((3-methoxy-3-oxoprop-1-en-2-yl)amino)-3-oxoprop-1-en-2-yl)carbamoyl)-1H-pyrazol-1-yl)piperidine-1-carboxylate]",> 20 µM,> 1000 µM,+++ (>90%),25 to 100 µM,
"C=C(NC(=O)c1cn(-c2ccccc2)cn1)C(=O)NC(=C)C(=O)OC [Compound 1, Methyl 2-(2-(1-phenyl-1H-imidazole-4-carboxamido)acrylamido)acrylate]",,< 100 µM,+++ (>90%),,"MIC [1, 9]: > 20 µM; EC50 ([4]; SK-OV-3, 48 h): 1 to 10 µM"
"C=C(NC(=O)OC1CCN(C(=O)OC(C)(C)C)CC1)C(=O)NC(=C)C(=O)OC [Compound 4, Tert-butyl 4-(((3-((3-methoxy-3-oxoprop-1-en-2-yl)amino)-3-oxoprop-1-en-2-yl)carbamoyl)oxy)piperidine-1-carboxylate]",> 20 µM,> 1000 µM,++ (50-90%),> 100 µM,
"C=C(NC(=O)c1cn(C2CCN(C(=O)OC(C)(C)C)CC2)nn1)C(=O)NC(=C)C(=O)OC [Compound 5, Tert-butyl 4-(4-((3-((3-methoxy-3-oxoprop-1-en-2-yl)amino)-3-oxoprop-1-en-2-yl)carbamoyl)-1H-1,2,3-triazol-1-yl)piperidine-1-carboxylate]",> 20 µM,< 100 µM,++ (50-90%),1 to 10 µM,
"C=C(NC(=O)c1csc(-c2ccc(NC(=O)CCCCCBr)cc2)n1)C(=O)NC(=C)C(=O)OC [Compound A, Methyl 2-(2-(2-(4-(6-bromohexanamido)phenyl)thiazole-4-carboxamido)acrylamido)acrylate, reference compound]",,< 100 µM,,,"Antimicrobial Activity ([1]; E. hirae, overnight growth at 37° C.): − (>20 μM)"
"C=C(NC(=O)OCC1CCN(C(=O)OC(C)(C)C)CC1)C(=O)NC(=C)C(=O)OC [Compound 3, Tert-butyl 4-(5,8-dimethylene-3,6,9-trioxo-2,10-dioxa-4,7-diazaundecyl)piperidine-1-carboxylate]",,,+ (5-50%),,solubility [2]: −
"C=C(NC(=O)C(=C)NC(=O)c1csc(C2=N[C@@H]3c4csc(n4)[C@H]4NC(=O)c5csc(n5)[C@H]([C@](C)(O)[C@@H](C)O)NC(=O)[C@H]5CSC(=N5)/C(=C/C)NC(=O)[C@H]([C@@H](C)O)NC(=O)c5csc(n5)[C@]3(CC2)NC(=O)[C@H](C)NC(=O)C(=C)NC(=O)[C@H](C)NC(=O)[C@H]([C@@H](C)CC)N[C@@H]2C=Cc3c([C@H](C)O)cc(nc3[C@H]2O)C(=O)O[C@@H]4C)n1)C(N)=O [Thiostrepton, reference compound]",,,++ (50-90%),,"TS concentrations at which complete growth was observed ([1]; E. hirae, overnight at 37° C., visual inspection, n=9): ≤ 0.030 µM; MIC [1, 9]: 0.02 to 0.2 µM; MIC ([1]; ATCC10541, read-out: TS concentrations at which no growth was observed (MIC determination)): ≥ 0.045 µM; solubility ([2]; aqueous with cosolvent or surfactant or cyclodextrin, kinetic from dmso stock, read-out: Solubility): < 100 µM; tumor cells lines in which meaningful efficacy was shown [5]: 403; EC50 ([4]; SK-OV-3, 48 h): 1 to 10 µM"
"C=C(NC(=O)c1cnn(-c2ccccc2)c1)C(=O)NC(=C)C(=O)OC [Compound 2, Methyl 2-(2-(1-phenyl-1H-pyrazole-4-carboxamido)acrylamido)acrylate]",> 20 µM,> 1000 µM,++ (50-90%),10 to 25 µM,
